From ChEMBL document CHEMBL5143685, “Valorisation of the diterpene podocarpic acid - Antibiotic and antibiotic enhancing activities of polyamine conjugates” (Bioorg Med Chem, 2022)

How the values were obtained:
Escherichia coli [1] = test: Antibacterial activity against Escherichia coli ATCC 25922 assessed as inhibition of bacterial growth measured after 18 hrs by resazurin dye based analysis; type: functional
Cryptococcus neoformans = test: Antifungal activity against Cryptococcus neoformans ATCC 208821 assessed as fungal growth inhibition incubated for 36 hrs by resazurin dye based analysis; type: functional
Pseudomonas aeruginosa [2] = test: Antibacterial activity against Pseudomonas aeruginosa ATCC 27853 assessed as inhibition of bacterial growth measured after 18 hrs by resazurin dye based analysis; type: functional
[3] = Cytotoxicity against HEK293 cells assessed as cell growth inhibition measured after 20 hrs by resazurin dye based assay; type: toxicity; details: human
Escherichia coli [4] = test: Antibiotic adjuvant activity against Escherichia coli ATCC 25922 assessed as erythromycin MIC measured after 18 hrs in presence of erythromycin; type: functional
Acinetobacter baumannii = test: Antibacterial activity against Acinetobacter baumannii ATCC 19606 assessed as inhibition of bacterial growth measured after 18 hrs by resazurin dye based analysis; type: functional
Candida albicans = test: Antifungal activity against Candida albicans ATCC 90028 assessed as fungal growth inhibition incubated for 36 hrs by resazurin dye based analysis; type: functional
[5] = Selectivity index, ratio of IC50 for HEK293 to MIC for methicillin-resistant Staphylococcus aureus ATCC 43300; type: toxicity; details: human, HEK293 cells; read-out: Selectivity Index
Klebsiella pneumoniae = test: Antibacterial activity against Klebsiella pneumoniae ATCC 700603 assessed as inhibition of bacterial growth measured after 18 hrs by resazurin dye based analysis; type: functional
Staphylococcus aureus = test: Antibacterial activity against methicillin-resistant Staphylococcus aureus ATCC 43300 assessed as inhibition of bacterial growth measured after 18 hrs by resazurin dye based analysis; type: functional
Pseudomonas aeruginosa [6] = test: Antibiotic adjuvant activity against Pseudomonas aeruginosa ATCC 27853 assessed as doxycycline MIC measured after 18 hrs in presence of doxycycline; type: functional
Saccharomyces cerevisiae [7] = test: Antifungal activity against Saccharomyces cerevisiae YJM789 assessed as fungal growth inhibition incubated for 24 hrs by plate reader method; type: functional, organism-based; details: YJM789, 24 h
Saccharomyces cerevisiae [8] = test: Antifungal activity against Saccharomyces cerevisiae BY4743 assessed as fungal growth inhibition incubated for 24 hrs by plate reader method; type: functional, organism-based; details: BY4743, 24 h

| SMILES | MIC (Escherichia coli [1]) [µM] | MIC (Cryptococcus neoformans) [µM] | MIC (Pseudomonas aeruginosa [2]) [µM] | IC50 at 20 h [3] [µM] | MIC (Escherichia coli [4]) [µM] | MIC (Acinetobacter baumannii) [µM] | MIC (Candida albicans) [µM] | selectivity ratio [5] | MIC (Klebsiella pneumoniae) [µM] | MIC (Staphylococcus aureus) [µM] | MIC (Pseudomonas aeruginosa [6]) [µM] | IC50 (Saccharomyces cerevisiae [7]) [µM] | IC50 (Saccharomyces cerevisiae [8]) [µM] |
| --- | --- | --- | --- | --- | --- | --- | --- | --- | --- | --- | --- | --- | --- |
| C[C@]1(C(=O)NCCCNCCCCNCCCNC(=O)[C@@]2(C)CCC[C@]3(C)c4cc(O)ccc4CC[C@@H]23)CCC[C@]2(C)c3cc(O)ccc3CC[C@@H]12.O=C(O)C(F)(F)F.O=C(O)C(F)(F)F | > 33.9 | 17 | > 33.9 | > 33.9 | 26.5 | > 33.9 | > 33.9 | > 130 | > 33.9 | ≤ 0.26 |  |  |  |
| C[C@]1(C(=O)NCCCNCCCCCCCN)CCC[C@]2(C)c3cc(OC(=O)NCCCNCCCCCCCN)ccc3CC[C@@H]12.O=C(O)C(F)(F)F.O=C(O)C(F)(F)F.O=C(O)C(F)(F)F.O=C(O)C(F)(F)F | > 29.7 | > 29.7 | > 29.7 | > 28.7 | 50 | > 29.7 | > 29.7 |  | > 29.7 | > 28.7 |  |  |  |
| C[C@]1(C(=O)NCCCNCCCCN)CCC[C@]2(C)c3cc(OC(=O)NCCCNCCCCN)ccc3CC[C@@H]12.O=C(O)C(F)(F)F.O=C(O)C(F)(F)F.O=C(O)C(F)(F)F.O=C(O)C(F)(F)F | > 31.1 | > 31.1 | > 31.1 | > 31.1 | 25 | > 31.1 | > 31.1 |  | > 31.1 | > 31.1 | 25 |  |  |
| C[C@]1(C(=O)NCCCNCCCCCCN)CCC[C@]2(C)c3cc(OC(=O)NCCCNCCCCCCN)ccc3CC[C@@H]12.O=C(O)C(F)(F)F.O=C(O)C(F)(F)F.O=C(O)C(F)(F)F.O=C(O)C(F)(F)F | > 29.5 | > 29.5 | > 29.5 | > 29.5 | 50 | > 29.5 | > 29.5 |  | > 29.5 | > 29.5 |  |  |  |
| C[C@@]12CCC[C@](C)(C(=O)O)[C@H]1CCc1ccc(OC(=O)CCCNCCCCCCNCCCNC(=O)Oc3ccc4c(c3)[C@@]3(C)CCC[C@](C)(C(=O)O)[C@@H]3CC4)cc12.O=C(O)C(F)(F)F.O=C(O)C(F)(F)F | > 30.2 | 30.2 | > 30.2 | > 30.2 |  | > 30.2 | 30.2 |  | > 30.2 | 30.2 |  | 14.3 | 3.59 |
| C[C@]1(C(=O)NCCCNCCCCCCCCCCN)CCC[C@]2(C)c3cc(OC(=O)NCCCNCCCCCCCCCCN)ccc3CC[C@@H]12.O=C(O)C(F)(F)F.O=C(O)C(F)(F)F.O=C(O)C(F)(F)F.O=C(O)C(F)(F)F | > 26.7 | > 26.7 | > 26.7 | 20.6 | 3.12 | > 26.7 | > 26.7 |  | > 26.7 | 26.7 | 50 |  |  |
| COC(=O)[C@@]1(C)CCC[C@]2(C)c3cc(OC(=O)CCCNCCCCCCCCCCNCCCNC(=O)Oc4ccc5c(c4)[C@@]4(C)CCC[C@](C)(C(=O)OC)[C@@H]4CC5)ccc3CC[C@@H]12.O=C(O)C(F)(F)F.O=C(O)C(F)(F)F | > 28 | ≤ 0.22 | > 28 | 1.3 |  | > 28 | ≤ 0.22 |  | > 28 | 3.5 |  |  |  |
| C[C@]1(C(=O)NCCCNCCCCCCCCCCCCNCCCNC(=O)[C@@]2(C)CCC[C@]3(C)c4cc(O)ccc4CC[C@@H]23)CCC[C@]2(C)c3cc(O)ccc3CC[C@@H]12.O=C(O)C(F)(F)F.O=C(O)C(F)(F)F | > 30.3 | ≤ 0.24 | > 30.3 | > 30.3 |  | > 30.3 | 7.58 |  | > 30.3 | ≤ 0.24 |  |  |  |
| C[C@]1(C(=O)NCCCNCCCCCCCCCCCCN)CCC[C@]2(C)c3cc(O)ccc3CC[C@@H]12.O=C(O)C(F)(F)F.O=C(O)C(F)(F)F | 43.1 | 43.1 | > 43.1 | 26.2 |  | 43.1 | 43.1 | 4.9 | > 43.1 | 5.4 |  |  |  |
| C[C@]1(C(=O)NCCCNCCCCCCN)CCC[C@]2(C)c3cc(O)ccc3CC[C@@H]12.O=C(O)C(F)(F)F.O=C(O)C(F)(F)F | > 48.6 | > 48.6 | > 48.6 | > 48.6 |  | > 48.6 | > 48.6 |  | > 48.6 | > 48.6 |  |  |  |
| COC(=O)[C@@]1(C)CCC[C@]2(C)c3cc(OC(=O)CCCNCCCCCCCNCCCNC(=O)Oc4ccc5c(c4)[C@@]4(C)CCC[C@](C)(C(=O)OC)[C@@H]4CC5)ccc3CC[C@@H]12.O=C(O)C(F)(F)F.O=C(O)C(F)(F)F | > 29.1 | 7.26 | > 29.1 | > 29.1 |  | > 29.1 | ≤ 0.23 |  | > 29.1 | ≤ 0.23 |  |  |  |
| CCCCCNC(=O)[C@@]1(C)CCC[C@]2(C)c3cc(OC(=O)CCCNCCCCCCCCNCCCNC(=O)Oc4ccc5c(c4)[C@@]4(C)CCC[C@](C)(C(=O)NCCCCC)[C@@H]4CC5)ccc3CC[C@@H]12.O=C(O)C(F)(F)F.O=C(O)C(F)(F)F | > 26.1 | ≤ 0.2 | > 26.1 | > 26.1 |  | > 26.1 | ≤ 0.2 |  | > 26.1 | 1.63 |  |  |  |
| C[C@]1(C(=O)NCCCNCCCCCCCCCCN)CCC[C@]2(C)c3cc(O)ccc3CC[C@@H]12.O=C(O)C(F)(F)F.O=C(O)C(F)(F)F | > 44.8 | > 44.8 | > 44.8 | > 44.8 |  | > 44.8 | > 44.8 |  | > 44.8 | > 44.8 |  |  |  |
| C[C@]1(C(=O)NCCCNCCCCCCNCCCNC(=O)[C@@]2(C)CCC[C@]3(C)c4cc(O)ccc4CC[C@@H]23)CCC[C@]2(C)c3cc(O)ccc3CC[C@@H]12.O=C(O)C(F)(F)F.O=C(O)C(F)(F)F | 32.9 | 32.9 | > 32.9 | 28.6 |  | > 32.9 | 32.9 |  | > 32.9 | 32.9 |  |  |  |
| C[C@]1(C(=O)O)CCC[C@]2(C)c3cc(OC(=O)NCCCNCCCCCCN)ccc3CC[C@@H]12.O=C(O)C(F)(F)F.O=C(O)C(F)(F)F | > 45.6 | > 45.6 | > 45.6 | > 45.6 |  | > 45.6 | > 45.6 |  | > 45.6 | > 45.6 |  |  |  |
| C[C@]1(C(=O)O)CCC[C@]2(C)c3cc(OC(=O)NCCCNCCCCCCCCN)ccc3CC[C@@H]12.O=C(O)C(F)(F)F.O=C(O)C(F)(F)F | > 43.8 | > 43.8 | > 43.8 | > 43.8 |  | > 43.8 | > 43.8 |  | > 43.8 | > 43.8 |  |  |  |
| CCCCCNC(=O)[C@@]1(C)CCC[C@]2(C)c3cc(OC(=O)CCCNCCCCCCCCCCNCCCNC(=O)Oc4ccc5c(c4)[C@@]4(C)CCC[C@](C)(C(=O)NCCCCC)[C@@H]4CC5)ccc3CC[C@@H]12.O=C(O)C(F)(F)F.O=C(O)C(F)(F)F | > 25.5 | 3.19 | > 25.5 | > 25.5 |  | > 25.5 | ≤ 0.2 |  | > 25.5 | ≤ 0.2 |  |  |  |
| C[C@]1(C(=O)NCCCNCCCCCCCCNCCCNC(=O)[C@@]2(C)CCC[C@]3(C)c4cc(O)ccc4CC[C@@H]23)CCC[C@]2(C)c3cc(O)ccc3CC[C@@H]12.O=C(O)C(F)(F)F.O=C(O)C(F)(F)F | 32 | 32 | > 32 | 18.1 |  | 32 | 32 |  | > 32 | 8 |  |  |  |
| C[C@]1(C(=O)NCCCNCCCCCCCCCCCCN)CCC[C@]2(C)c3cc(OC(=O)NCCCNCCCCCCCCCCCCN)ccc3CC[C@@H]12.O=C(O)C(F)(F)F.O=C(O)C(F)(F)F.O=C(O)C(F)(F)F.O=C(O)C(F)(F)F | ≤ 0.2 | > 25.5 | > 25.5 | 0.33 |  | 6.38 | 25.5 |  | 12.8 | ≤ 0.2 | 50 |  |  |
| CCCCCNC(=O)[C@@]1(C)CCC[C@]2(C)c3cc(OC(=O)CCCNCCCCCCCNCCCNC(=O)Oc4ccc5c(c4)[C@@]4(C)CCC[C@](C)(C(=O)NCCCCC)[C@@H]4CC5)ccc3CC[C@@H]12.O=C(O)C(F)(F)F.O=C(O)C(F)(F)F | > 26.4 | 3.3 | > 26.4 | > 26.4 |  | > 26.4 | ≤ 0.21 |  | > 26.4 | ≤ 0.21 |  |  |  |
| C[C@]1(C(=O)NCCCNCCCCCCCCCCNCCCNC(=O)[C@@]2(C)CCC[C@]3(C)c4cc(O)ccc4CC[C@@H]23)CCC[C@]2(C)c3cc(O)ccc3CC[C@@H]12.O=C(O)C(F)(F)F.O=C(O)C(F)(F)F | > 31.1 | 3.89 | > 31.1 | 0.87 |  | > 32.1 | > 32.1 |  | > 31.1 | ≤ 0.24 |  |  |  |
